Laboratory results: patent US20060258598A1, “Alpha-keto carbonyl calpain inhibitors” (priority 2003, published 2006)

What was measured:
[1] = test system: cellular calpains in C2C12 myoblasts; experiment: Calpain inhibition assay in C2C12 myoblasts; format: cell-based; conditions: 2 h incubation, calcium ionophore Br-A-23187, read-out: Calp I IC50 Myoblast
Protocol: Calpain Inhibition Assay in C2C12 Myoblasts
This assay is aimed at monitoring the ability of the substance to inhibit cellular calpains. C2C12 myoblasts are grown in 96-well plates in growth medium (DMEM, 20% foetal calf serum) until they reach confluency. The growth medium is then replaced by fusion medium (DMEM, 5% horse serum). 24 hours later the fusion medium is replaced by fusion medium containing the test substances dissolved in 1 μl DMSO. After 2 hours of incubation at 37° C. the cells are loaded with the calpain fluorogenic substrate Suc-Leu-Tyr-AMC at 400 μM in 50 μl of a reaction buffer containing 135 mM NaCl; 5 mM KCl; 4 mM CaCl2; 1 mM MgCl2; 10 mM Glucose; 10 mM HEPES pH 7.25 for 20 min at room temperature. The calcium influx, necessary to activate the cellular calpains, is evoked by the addition of 50 μl reaction buffer containing 20 μM of the calcium ionophore Br-A-23187 (Molecular Probes). The fluorescence of the cleavage product AMC is measured as described above during 60 min at 37° C. at intervals of 1 min. The IC50 values are determined as described above. Comparison of the IC50 determined in the enzymatic calpain inhibition assay to the IC50 determined in the C2C12 myoblasts calpain inhibiton assay, allows to evaluate the cellular uptake or the membrane permeability of the substance.

[2] = test system: Primary fibroblasts from donors with Friedreich Ataxia (FRDA); experiment: BSO assay (cell viability under BSO-induced oxidative stress); format: cell-based, human; conditions: 24 h preincubation, 1 mM BSO; for EC50: Homo sapiens, Fibroblast
Protocol: Primary fibroblasts were derived from donors with molecular diagnosis for Friedreich Ataxia (FRDA) and control donors with no mitochondrial disease. Cell lines were obtained from Coriell Cell Repositories (Camden, N.J.; catalog numbers GM04078, GM08402 and GM08399 respectively). All cell types were diagnosed on the molecular level for intronic […] triplet repeat length of at least 400-450 repeats using a PCR-based method. Experiments were carried out as described in the literature (M. L. Jauslin et al., Human Mol. Genet., 2002, 11, 3055-3063): Cells were seeded in microtiter plates at a density of 4'000 cells per 100 μl in growth medium consisting of 25% (v/v) M199 EBS and 64% (v/v) MEM EBS without phenol red (Bioconcept, Allschwil, Switzerland) supplemented with 10% (v/v) fetal calf serum (PAA Laboratories, Linz, Austria), 100 U/ml penicillin, 100 μg/ml streptomycin (PAA Laboratories, Linz, Austria), 10 μg/ml insulin (Sigma, Buchs, Switzerland), 10 ng/ml EGF (Sigma, Buchs, Switzerland), 10 ng/ml bFGF (PreproTech, Rocky Hill, N.J.) and 2 mM glutamine (Sigma, Buchs, Switzerland). The cells were incubated in the presence of various test compounds for 24 h before addition of L-buthionine-(S,R)-sulfoximine (BSO) to a final concentration of 1 mM. Cell viability was measured after the first signs of toxicity appeared in the BSO-treated controls (typically after 16 to 48 h). The cells were stained for 60 min at room temperature in PBS with 1.2 μM calcein AM and 4 μM ethidium homodimer (Live/Dead assay, Molecular Probes, Eugene, Oreg.). Fluorescence intensity was measured with a Gemini Spectramax XS spectrofluorimeter (Molecular Devices, Sunnyvale, Calif.) using excitation and emission wavelengths of 485 nm and 525 nm respectively.

human μ-calpain = molecular target: T1, human μ-calpain (Homo sapiens, UniProt P07384); experiment: Enzymatic calpain inhibition assay; format: biochemical; conditions: substrate Suc-Leu-Tyr-AMC, read-out: Calp I IC50
T1 construct: purchased Calbiochem
T1 sequence (P07384 1-714): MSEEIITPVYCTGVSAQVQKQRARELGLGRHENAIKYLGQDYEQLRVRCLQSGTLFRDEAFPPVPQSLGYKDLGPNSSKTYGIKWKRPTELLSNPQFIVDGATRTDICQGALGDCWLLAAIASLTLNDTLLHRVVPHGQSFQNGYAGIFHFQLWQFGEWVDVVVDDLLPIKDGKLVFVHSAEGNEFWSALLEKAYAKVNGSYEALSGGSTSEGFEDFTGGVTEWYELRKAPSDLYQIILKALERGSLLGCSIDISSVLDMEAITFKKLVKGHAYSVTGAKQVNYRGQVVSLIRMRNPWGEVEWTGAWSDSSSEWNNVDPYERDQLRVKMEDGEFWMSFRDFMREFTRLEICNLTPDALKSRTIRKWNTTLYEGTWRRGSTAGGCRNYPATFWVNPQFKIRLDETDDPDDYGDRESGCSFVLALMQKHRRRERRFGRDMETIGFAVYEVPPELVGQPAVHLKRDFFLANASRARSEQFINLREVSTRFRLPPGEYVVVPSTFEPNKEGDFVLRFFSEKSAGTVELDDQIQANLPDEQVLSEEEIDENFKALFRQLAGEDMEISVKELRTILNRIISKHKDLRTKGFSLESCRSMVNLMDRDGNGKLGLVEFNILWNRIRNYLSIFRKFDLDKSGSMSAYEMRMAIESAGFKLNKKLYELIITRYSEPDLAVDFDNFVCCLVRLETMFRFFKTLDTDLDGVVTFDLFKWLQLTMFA
T1 sequence (P04632 1-268 partner): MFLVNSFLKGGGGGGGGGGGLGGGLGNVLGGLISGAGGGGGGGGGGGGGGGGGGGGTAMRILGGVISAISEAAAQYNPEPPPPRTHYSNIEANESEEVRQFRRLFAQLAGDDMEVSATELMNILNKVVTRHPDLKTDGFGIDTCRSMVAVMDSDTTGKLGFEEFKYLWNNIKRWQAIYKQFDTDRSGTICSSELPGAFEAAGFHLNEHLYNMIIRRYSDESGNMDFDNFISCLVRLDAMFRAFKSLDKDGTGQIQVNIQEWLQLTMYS
Protocol: The Ki value was also determined in some cases. These criteria were used to measure the inhibitory effect of the compounds (I) on calpain I, calpain II and cathepsin B.
Enzymatic Calpain Inhibition Assay
The inhibitory properties of calpain inhibitors are tested in 100 μl of a buffer containing 100 mM imidazole pH 7.5, 5 mM L-Cystein-HCl, 5 mM CaCl2, 250 μM of the calpain fluorogenic substrate Suc-Leu-Tyr-AMC (Sigma) (Sasaki et al., J. Biol. Chem., 1984, 259, 12489-12949) dissolved in 2.5 μl DMSO and 0.5 μg of human μ-calpain (Calbiochem). The inhibitors dissolved in 1 μl DMSO are added to the reaction buffer. The fluorescence of the cleavage product 7-amino-4-methylcoumarin (AMC) is followed in a SPECTRAmax GEMINI XS (Molecular Device) fluorimeter at λex=360 nm and λem=440 nm at 30° C. during 30 min at intervals of 30 sec in 96-well plates (Greiner). The initial reaction velocity at different inhibitor concentrations is plotted against the inhibitor concentration and the IC50 values determined graphically.

| Compound | IC50 [1] [nM] | IC50 (human μ-calpain) [nM] | EC50 [2] [nM] | BSO EC50 [2] |
| --- | --- | --- | --- | --- |
| CCNC(=O)C(=O)[C@H](Cc1ccc(Cl)cc1)NC(=O)[C@@H](NC(=O)CCCC1CCCS1)C(C)C (stereo partly shown) [Example 5] | 2000 | 120 | 2000 |  |
| CCNC(=O)C(=O)[C@H](Cc1ccc(Cl)cc1)NC(=O)[C@@H](NC(=O)CCC1CCCS1)C(C)C (stereo partly shown) [Example 6] | 3200 | 110 |  |  |
| Cc1ccc(S(=O)(=O)CNC(=O)C(=O)[C@H](Cc2ccc(Cl)cc2)NC(=O)[C@@H](NC(=O)CCCCC2CCSS2)C(C)C)cc1 (stereo partly shown) [Example 13] | 500 | 200 | 1000 |  |
| Cc1ccc(S(=O)(=O)CNC(=O)C(=O)[C@H](Cc2ccc(Cl)cc2)NC(=O)[C@@H](NC(=O)CCCCC2CCS[S+]2[O-])C(C)C)cc1 (stereo partly shown) [Example 14] | 1200 | 200 |  |  |
| Cc1ccc(S(=O)(=O)CNC(=O)C(=O)[C@H](Cc2ccc(Cl)cc2)NC(=O)[C@H](CC(C)C)NC(=O)CCCCC2CCSS2)cc1 (stereo partly shown) [Example 25] | 1500 | 120 | 2000 |  |
| Cc1ccc(S(=O)(=O)CNC(=O)C(=O)[C@H](Cc2ccc(Cl)cc2)NC(=O)[C@H](CC(C)C)NC(=O)CCCCC2CCS[S+]2[O-])cc1 (stereo partly shown) [Example 26] | 2000 | 120 | 4000 |  |
| CCNC(=O)C(=O)[C@H](Cc1ccc(Cl)cc1)NC(=O)[C@H](CC(C)(C)C)NC(=O)CCCCC1CCSS1 (stereo partly shown) [Example 27] | 3500 | 100 |  | inactive |
| CCNC(=O)C(=O)[C@H](Cc1ccc(Cl)cc1)NC(=O)[C@H](CC(C)(C)C)NC(=O)CCCCC1CCS[S+]1[O-] (stereo partly shown) [Example 28] | 4000 | 180 |  | inactive |
| CCNC(=O)C(=O)[C@H](Cc1ccc(Cl)c(Cl)c1)NC(=O)[C@@H](NC(=O)CCCCC1CCSS1)C(C)C (stereo partly shown) [Example 29] | 10000 | 85 |  |  |
| CCNC(=O)C(=O)[C@H](Cc1ccc(Cl)cc1Cl)NC(=O)[C@@H](NC(=O)CCCCC1CCSS1)C(C)C (stereo partly shown) [Example 33] | 40000 | 100 |  | inactive |
| CCNC(=O)C(=O)[C@H](Cc1ccc(Cl)cc1Cl)NC(=O)[C@@H](NC(=O)CCCCC1CCS[S+]1[O-])C(C)C (stereo partly shown) [Example 34] | 20000 | 500 |  |  |
| CCNC(=O)C(=O)[C@H](Cc1ccc(F)c(F)c1)NC(=O)[C@@H](NC(=O)CCCCC1CCSS1)C(C)C (stereo partly shown) [Example 41] | 700 | 100 |  |  |
| CCNC(=O)C(=O)[C@H](Cc1ccc(C(C)(C)C)cc1)NC(=O)[C@@H](NC(=O)CCCCC1CCSS1)C(C)C (stereo partly shown) [Example 118] | 1800 | 400 |  |  |
| CCNC(=O)C(=O)[C@H](Cc1ccc(C(C)(C)C)cc1)NC(=O)[C@H](CC(C)C)NC(=O)CCCCC1CCSS1 (stereo partly shown) [Example 120] | 850 | 95 |  |  |
| CCNC(=O)C(=O)[C@H](CC1CCCCC1)NC(=O)[C@@H](NC(=O)CCCCC1CCSS1)C(C)C (stereo partly shown) [Example 149] | 3000 | 250 |  |  |
| CCNC(=O)C(=O)[C@@H](NC(=O)[C@@H](NC(=O)CCCCC1CCS[S+]1[O-])C(C)C)c1ccccc1 (stereo partly shown) [Example 154] |  | 750 |  |  |
| CCNC(=O)C(=O)[C@H](CC(C)C)NC(=O)[C@@H](NC(=O)CCCCC1CCSS1)C(C)C (stereo partly shown) [Example 157] | 250 | 500 |  |  |
| CCNC(=O)C(=O)[C@H](Cc1ccc(Cl)cc1)NC(=O)[C@@H](NC(=O)CNC(=O)CCCCC1CCS[S+]1[O-])C(C)C (stereo partly shown) [Example 170] | 4000 | 150 |  |  |
| CCNC(=O)C(=O)[C@H](Cc1ccc(Cl)cc1)NC(=O)[C@@H](NC(=O)CNC(=O)CCCCC1SC[C@@H]2NC(=O)N[C@H]12)C(C)C (stereo partly shown) [Example 212] | 3500 | 150 |  |  |

Now those with a lower IC50 (human μ-calpain), led by results:

| IC50 [1] [nM] | IC50 (human μ-calpain) [nM] | Compound | EC50 [2] [nM] | BSO EC50 [2] |
| --- | --- | --- | --- | --- |
| 6000 | 80 | CCNC(=O)C(=O)[C@H](Cc1ccc(Cl)cc1)NC(=O)[C@@H](NC(=O)CCCCC1CCS[S+]1[O-])C(C)C (stereo partly shown) [Example 2] | 2000 |  |
| 4000 | 60 | COc1ccc(C[C@H](NC(=O)[C@@H](NC(=O)CCCCC2CCS[S+]2[O-])C(C)C)C(=O)C(=O)O)cc1 (stereo partly shown) [Example 89] |  |  |
| 2000 | 50 | CCNC(=O)C(=O)[C@H](Cc1ccc(Cl)cc1)NC(=O)[C@H](CC(C)C)NC(=O)CCCCC1CCS[S+]1[O-] (stereo partly shown) [Example 16] | 4000 |  |
| 3000 | 50 | CCNC(=O)C(=O)[C@H](Cc1ccc(Cl)cc1Cl)NC(=O)[C@H](CC(C)C)NC(=O)CCCCC1CCSS1 (stereo partly shown) [Example 35] |  | inactive |
| 800 | 40 | CCNC(=O)C(=O)[C@H](Cc1ccc(C(F)(F)F)cc1)NC(=O)[C@H](CC(C)C)NC(=O)CCCCC1CCS[S+]1[O-] (stereo partly shown) [Example 125] |  |  |
| 2500 | 30 | CCNC(=O)C(=O)[C@H](Cc1ccc(Cl)c(Cl)c1)NC(=O)[C@H](CC(C)C)NC(=O)CCCCC1CCSS1 (stereo partly shown) [Example 31] | 15000 |  |
| 1000 | 25 | CCNC(=O)C(=O)[C@H](Cc1ccc(Cl)cc1)NC(=O)[C@@H](NC(=O)CNC(=O)CCCCC1CCSS1)C(C)C (stereo partly shown) [Example 169] |  |  |
| 2500 | 22 | CCNC(=O)C(=O)[C@H](Cc1ccc(Cl)cc1)NC(=O)[C@H](CC(C)C)NC(=O)CCCCC1CCSS1 (stereo partly shown) [Example 15] | 4000 |  |
| 500 | 15 | CCNC(=O)C(=O)[C@H](Cc1ccc(I)cc1)NC(=O)[C@H](CC(C)C)NC(=O)CCCCC1CCS[S+]1[O-] (stereo partly shown) [Example 79] |  |  |
